In patent publication US9050312B2, “Strontium compound for treatment of sub-dermal soft tissue pain” (SANTOSOLVE AS, priority 2001, dated 2015):

System: severe pain in the neck and shoulders
Test: Clinical testing: severe pain in the neck and shoulders after a car accident
Assay type: in vivo, human
Settings: person; had not slept continuously any night since the accident
Source text: A person was involved in a car accident seven years earlier and had developed severe pain in the neck and shoulders. The patient had used non-steroidal anti-inflammatory drugs for a long time without significant effect. They had not slept continuously any night since the accident.
The patient tried the composition of Example 19 by administering topically to the areas of pain. They claimed a pain relieving effect after one minute and had no or very little pain for the following 2 to 3 days. After administration of the composition of Example 13 they were able to sleep for about 10 hours each of the next two nights.

Compound: CNCC(O)C(O)C(O)C(O)CO.CNCC(O)C(O)C(O)C(O)CO.O=C([O-])CN(CCN(CC(=O)O)CC(=O)O)CC(=O)[O-].[Sr+2] [Example 13, SrEDTA Dimeglumine Salt]
- sleep each of the next two nights: about 10 hours
